We go through 11 molecules from article PMC4762374 (MedChemComm, 2015).

SMILES strings stand for the structures.

In one test the test system is M. vaccae. Briefly: Kirby-Bauer antibacterial agar diffusion assay. The test is classed as cell-based.
For another test, the target named is NDM-1 (Purified) (Klebsiella pneumoniae, UniProt C7C422). Kind of test: In vitro β-lactamase inhibition screening, NDM-1. It counts as biochemical. The conditions noted are these: for inhibition of NDM-1 (in words): class B enzymes, effect of N-thiolation.
The subject of another test is M.tb (H37Rv). Briefly: Microplate alamar blue assay. It counts as cell-based, Mycobacterium tuberculosis. The conditions noted are these: against M.tb.
For another test, the target named is CTX-M-14 (Purified) (Escherichia coli, UniProt Q9L5C7). Kind of test: In vitro β-lactamase inhibition screening, CTX-M-14. The test is classed as biochemical.

NDM-1 (Purified), sequence (C7C422 29-270 limits assumed): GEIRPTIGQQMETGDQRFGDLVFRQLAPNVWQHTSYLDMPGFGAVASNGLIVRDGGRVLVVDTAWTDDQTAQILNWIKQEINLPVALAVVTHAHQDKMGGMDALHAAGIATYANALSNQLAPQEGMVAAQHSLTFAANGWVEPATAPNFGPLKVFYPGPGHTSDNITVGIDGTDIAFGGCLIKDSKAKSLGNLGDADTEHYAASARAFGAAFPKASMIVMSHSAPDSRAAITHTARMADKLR

Turning to `CSN1C(=O)[C@@H](NC(=O)COc2ccccc2)[C@@H]1N(OCc1ccccc1)C(=O)c1ccccc1` (racemic) [Compound 24a], the “activity in the agar studies (in words)” value with M. vaccae is recorded as “not very active”. As for `CSN1C(=O)[C@@H](NC(=O)COc2ccccc2)[C@@H]1N(OCc1ccccc1)C(=O)c1cc([N+](=O)[O-])cc(C(F)(F)F)c1` (racemic) [Compound 24b], the “inhibition of NDM-1 (in words)” value on NDM-1 (Purified) is “potent inhibitor”. With `CCOc1ccc(C(=O)N(OCc2ccccc2)C2CC(=O)N2)cc1` (centres unmarked) [Compound 7b], at NDM-1 (Purified), the “inhibition of NDM-1 (in words)” value was “inactive”. `C[C@@H](O[Si](C)(C)C(C)(C)C)[C@H]1C(=O)N[C@@H]1N(OCc1ccccc1)C(=O)c1ccccc1` [Compound 11]: in the test on M.tb (H37Rv), the “anti-TB activity (in words)” value was “did not exhibit noticeable anti-TB activity”. `CCOc1ccc(C(=O)N(OCc2ccccc2)C2CC(=O)N2SC)cc1` (centres unmarked) [Compound 8b]: the “inhibition of NDM-1 (in words)” value on NDM-1 (Purified) is reported as “potent inhibitor”. For `C[C@@H](O)[C@H]1C(=O)N[C@@H]1N(OCc1ccccc1)C(=O)c1ccccc1` [Compound 12], the “anti-TB activity (in words)” value in the test with M.tb (H37Rv) is “inactive”. For the same molecule, the “β-lactamase inhibitory activity (in words)” value at CTX-M-14 (Purified) (after silyl removal, compared with CTX-M-14-directed compound 13) was “inactive”. Regarding `CC(C)(C)[Si](C)(C)N1C(=O)CC1N(OCc1ccccc1)C(=O)c1ccccc1` (centres unmarked) [Compound 6], the “activity in the agar studies (in words)” value with M. vaccae was “not very active”.

Take `C=CCON(C(=O)c1ccc([N+](=O)[O-])cc1)C1CC(=O)N1SC` (centres unmarked) [Compound 8c]: at NDM-1 (Purified), the “inhibition of NDM-1 (in words)” value is “potent inhibitor”. Take `C=CCON(C(=O)c1ccc([N+](=O)[O-])cc1)C1CC(=O)N1` (centres unmarked) [Compound 7c]: the “inhibition of NDM-1 (in words)” value at NDM-1 (Purified) was “inactive”. `O=C(Cc1ccccc1)N[C@@H]1C(=O)N[C@H]1N(OCc1ccccc1)C(=O)c1ccccc1` [Compound 18]: the Ki is 50 nM at CTX-M-14 (Purified) and above 160000 nM at NDM-1 (Purified). On to `CSN1C(=O)[C@H]([C@@H](C)O[Si](C)(C)C(C)(C)C)[C@H]1N(OCc1ccccc1)C(=O)c1ccccc1` [Compound 13], for which the “anti-TB activity (in words)” value with M.tb (H37Rv) is listed as “good activity”. The “activity in the agar studies (in words)” value with M. vaccae is “not very active”.
